These are literature values, as cited in patent publication US7488493B2, “Performance aid for pesticide or repellent compositions” (Arkion Life Sciences, LLC, priority 2003, dated 2009).

The series deals with birds.

For `O=C1c2ccccc2C(=O)c2ccccc21` [9,10-anthraquinone], the “Lower limit of detection in birds (threshold where birds begin to sense the repellency)” value (in vivo) is on record as 125 ppm. Besides, under “treated seed”, the “Content in seed at which birds will not feed” value is on record as 0.1 % by weight.
